Laboratory results: patent publication US11339171B2, “MDM2 inhibitors” (Gan & Lee Pharmaceuticals, priority 2017, dated 2022)

What was measured:
[1] = system: human osteosarcoma cell line SJSA-1; test: Inhibition of proliferation of human osteosarcoma cell line SJSA-1 (DAPI staining, In Cell Analyzer); conditions: Homo sapiens, SJSA-1, 72 h, read-out: IC50 (nM), inhibitory activity on proliferation of human osteosarcoma cell line SJSA-1, SJSA-1, incubated 72 h
MDM2 = target: T1, MDM2 (Homo sapiens, UniProt Q00987); test: Inhibition test of MDM2-P53 (GST-MDM2, Biotin-P53, Anti-GST-Tb, SA-XL665); format: binding
T1 construct: made in house
In short: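 Binding was measured by TR-FRET with GST-MDM2 at 4 nM final in PBS with 0.1% BSA, 5 mM DTT and 1 mM AEBSF. Compounds were tested as twelve-point 5-fold dilutions and incubated with the detection mix for 90 min at 25 °C with shaking before plate-reader reading and curve fitting.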

T1 sequence (Q00987 whole entry): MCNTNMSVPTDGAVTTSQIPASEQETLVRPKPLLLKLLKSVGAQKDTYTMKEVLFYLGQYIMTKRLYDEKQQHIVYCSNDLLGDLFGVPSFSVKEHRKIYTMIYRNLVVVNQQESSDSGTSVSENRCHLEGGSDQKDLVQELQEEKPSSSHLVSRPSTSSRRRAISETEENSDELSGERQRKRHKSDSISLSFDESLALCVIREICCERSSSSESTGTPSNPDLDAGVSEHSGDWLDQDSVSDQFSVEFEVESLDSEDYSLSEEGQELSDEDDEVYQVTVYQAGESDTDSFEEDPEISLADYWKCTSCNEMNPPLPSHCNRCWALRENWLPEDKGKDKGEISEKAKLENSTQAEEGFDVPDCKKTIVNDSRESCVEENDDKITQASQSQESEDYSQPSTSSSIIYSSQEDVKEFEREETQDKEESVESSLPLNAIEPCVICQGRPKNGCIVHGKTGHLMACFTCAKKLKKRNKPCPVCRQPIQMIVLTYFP

CCOc1cc(OC)c(-c2nc3c(n2C(C)C)[C@@]2(C(=O)Nc4cc(Cl)ccc42)N(c2cccc(Cl)c2)C3=O)cn1 [Example S-102, (S)-6-chloro-5′-(3-chlorophenyl)-2′-(6-ethoxy-4-methoxypyridin-3-yl)-3′-isopropyl-3′H-spiro[dihydroindole-3,4′-pyrrolo[3,4-d]imidazole]-2,6′(5′H)-dione]
IC50 [1]: 57.4 nM
IC50 (MDM2): 2.01 nM

COc1cc(N(C)C)ccc1-c1nc2c(n1C(C)C)[C@@]1(C(=O)Nc3cc(Cl)ccc31)N(c1cccc(Cl)c1)C2=O [Example S-104, (S)-6-chloro-5′-(3-chlorophenyl)-2′-(4-(dimethylamino)-2-methoxyphenyl)-3′-isopropyl-3′H-spiro[dihydroindole-3,4′-pyrrolo[3,4-d]imidazole]-2,6′(5′H)-dione]
IC50 [1]: 266 nM
IC50 (MDM2): 2.26 nM

CCN(CC)c1ccc(-c2nc3c(n2C(C)C)[C@@]2(C(=O)Nc4cc(Cl)ccc42)N(c2cc(Cl)ccc2C)C3=O)c(OC)c1 [Example S-105, (S)-6-chloro-5′-(5-chloro-2-methylphenyl)-2′-(4-(diethylamino)-2-methoxyphenyl)-3′-isopropyl-3′H-spiro[dihydroindole-3,4′-pyrrolo[3,4-d]imidazole]-2,6′(5′H)-dione]
IC50 [1]: 243 nM
IC50 (MDM2): 11.2 nM

COc1cc(C2CC2)ncc1-c1nc2c(n1C(C)C)[C@@]1(C(=O)Nc3cc(Cl)ccc31)N(c1cccc(Cl)c1)C2=O [Example S-106, (S)-6-chloro-5′-(3-chlorophenyl)-2′-(6-cyclopropyl-4-methoxypyridin-3-yl)-3′-isopropyl-3′H-spiro[dihydroindole-3,4′-pyrrolo[3,4-d]imidazole]-2,6′(5′H)-dione]
IC50 [1]: 33.5 nM
IC50 (MDM2): 2.59 nM

CCc1ccc(-c2nc3c(n2C(C)C)[C@@]2(C(=O)Nc4cc(Cl)ccc42)N(c2cccc(Cl)c2)C3=O)c(OC)c1 [Example S-107, (S)-6-chloro-5′-(3-chlorophenyl)-2′-(4-ethyl-2-methoxyphenyl)-3′-isopropyl-3′H-spiro[dihydroindole-3,4′-pyrrolo[3,4-d]imidazole]-2,6′(5′H)-dione]
IC50 [1]: 115 nM
IC50 (MDM2): 4.55 nM

COc1cc(C2CC2)cc(OC)c1-c1nc2c(n1C(C)C)[C@@]1(C(=O)Nc3cc(Cl)ccc31)N(c1cc(Cl)ccc1C)C2=O [Example S-108, (S)-6-chloro-5′-(5-chloro-2-methylphenyl)-2′-(4-cyclopropyl-2,6-dimethoxyphenyl)-3′-isopropyl-3′H-spiro[dihydroindole-3,4′-pyrrolo[3,4-d]imidazole]-2,6′(5′H)-dione]
IC50 [1]: 28.8 nM
IC50 (MDM2): 8.87 nM

COc1cc(C)ccc1-c1nc2c(n1C(C)C)[C@@]1(C(=O)Nc3cc(Cl)ccc31)N(c1cccc(Cl)c1)C2=O [Example S-109, (S)-6-chloro-5′-(3-chlorophenyl)-3′-isopropyl-2′-(2-methoxy-4-methylphenyl)-3′H-spiro[dihydroindole-3,4′-pyrrolo[3,4-d]imidazole]-2,6′(5′H)-dione]
IC50 [1]: 54.6 nM
IC50 (MDM2): 2.34 nM

COc1cc(OC2CC2)ncc1-c1nc2c(n1C(C)C)[C@@]1(C(=O)Nc3cc(Cl)ccc31)N(c1cc(Cl)ccc1C)C2=O [Example S-110, (S)-6-chloro-5′-(5-chloro-2-methylphenyl)-2′-(6-cyclopropoxy-4-methoxypyridin-3-yl)-3′-isopropyl-3′H-spiro[dihydroindole-3,4′-pyrrolo[3,4-d]imidazole]-2,6′(5′H)-dione]
IC50 [1]: 78 nM
IC50 (MDM2): 1.6 nM

COc1cc(N(C)C)ncc1-c1nc2c(n1C(C)C)[C@@]1(C(=O)Nc3cc(Cl)ccc31)N(c1cc(Cl)ccc1C)C2=O [Example S-111, (S)-6-chloro-5′-(5-chloro-2-methylphenyl)-2′-(6-(dimethylamino)-4-methoxypyridin-3-yl)-3′-isopropyl-3′H-spiro[dihydroindole-3,4′-pyrrolo[3,4-d]imidazole]-2,6′(5′H)-dione]
IC50 [1]: 13 nM
IC50 (MDM2): 1.52 nM

COc1nc(N(C)C)ncc1-c1nc2c(n1C(C)C)[C@@]1(C(=O)Nc3cc(Cl)ccc31)N(c1cccc(Cl)c1)C2=O [Example S-112, (S)-6-chloro-5′-(3-chlorophenyl)-2′-(2-(dimethylamino)-4-methoxypyrimidin-5-yl)-3′-isopropyl-3′H-spiro[dihydroindole-3,4′-pyrrolo[3,4-d]imidazole]-2,6′(5′H)-dione]
IC50 [1]: 90.6 nM
IC50 (MDM2): 1.15 nM

COc1cc(N(C)C)ncc1-c1nc2c(n1C(C)C)[C@@]1(C(=O)Nc3cc(Cl)ccc31)N(c1cccc(Cl)c1)C2=O [Example S-113, (S)-6-chloro-5′-(3-chlorophenyl)-2′-(6-(dimethylamino)-4-methoxypyridin-3-yl)-3′-isopropyl-3′H-spiro[dihydroindole-3,4′-pyrrolo[3,4-d]imidazole]-2,6′(5′H)-dione]
IC50 [1]: 26.7 nM
IC50 (MDM2): 1.25 nM

COc1nc(N2CCCC2)ncc1-c1nc2c(n1C(C)C)[C@@]1(C(=O)Nc3cc(Cl)ccc31)N(c1cc(Cl)ccc1C)C2=O [Example S-114, (S)-6-chloro-5′-(5-chloro-2-methylphenyl)-3′-isopropyl-2′-(4-methoxy-2-(pyrrolidine-1-yl)pyrimidin-5-yl)-3′H-spiro[dihydroindole-3,4′-pyrrolo[3,4-d]imidazole]-2,6′(5′H)-dione]
IC50 [1]: 10.1 nM
IC50 (MDM2): 3.2 nM

COc1cc(C2CC2)ccc1-c1nc2c(n1C(C)C)[C@@]1(C(=O)Nc3cc(Cl)ccc31)N(c1cccc(Cl)c1)C2=O [Example S-116, (S)-6-chloro-5′-(3-chlorophenyl)-2′-(4-cyclopropyl-2-methoxyphenyl)-3′-isopropyl-3′H-spiro[dihydroindole-3,4′-pyrrolo[3,4-d]imidazole]-2,6′(5′H)-dione]
IC50 [1]: 213 nM
IC50 (MDM2): 4.18 nM

COc1nc(N2CCC2)ncc1-c1nc2c(n1C(C)C)[C@@]1(C(=O)Nc3cc(Cl)ccc31)N(c1cc(Cl)ccc1C)C2=O [Example S-117, (S)-2′-(2-(12zetidine-1-yl)-4-methoxypyrimidin-5-yl)-6-chloro-5′-(5-chloro-2-methylphenyl)-3′-isopropyl-3′H-spiro[dihydroindole-3,4′-pyrrolo[3,4-d]imidazole]-2,6′(5′H)-dione]
IC50 [1]: 14.4 nM
IC50 (MDM2): 2.15 nM

COc1nc(C)ncc1-c1nc2c(n1C(C)C)[C@@]1(C(=O)Nc3cc(Cl)ccc31)N(c1cc(Cl)ccc1C)C2=O [Example S-118, (S)-6-chloro-5′-(5-chloro-2-methylphenyl)-3′-isopropyl-2′-(4-methoxy-2-methylpyrimidin-5-yl)-3′H-spiro[dihydroindole-3,4′-pyrrolo[3,4-d]imidazole]-2,6′(5′H)-dione]
IC50 [1]: 107 nM
IC50 (MDM2): 3.51 nM

CCN(C)c1ncc(-c2nc3c(n2C(C)C)[C@@]2(C(=O)Nc4cc(Cl)ccc42)N(c2cc(Cl)ccc2C)C3=O)c(OC)n1 [Example S-119, (S)-6-chloro-5′-(5-chloro-2-methylphenyl)-2′-(2-(ethyl(methyl)amino)-4-methoxypyrimidin-5-yl)-3′-isopropyl-3′H-spiro[dihydroindole-3,4′-pyrrolo[3,4-d]imidazole]-2,6′(5′H)-dione]
IC50 [1]: 20 nM
IC50 (MDM2): 2.39 nM

COc1cc(OC(F)(F)F)ccc1-c1nc2c(n1C(C)C)[C@@]1(C(=O)Nc3cc(Cl)ccc31)N(c1cccc(Cl)c1)C2=O [Example S-120, (S)-6-chloro-5′-(3-chlorophenyl)-3′-isopropyl-2′-(2-methoxy-4-(trifluoromethoxy)phenyl)-3′H-spiro[dihydroindole-3,4′-pyrrolo[3,4-d]imidazole]-2,6′(5′H)-dione]
IC50 [1]: 364 nM
IC50 (MDM2): 9.01 nM

COc1nc(C2CC2)ncc1-c1nc2c(n1C(C)C)[C@@]1(C(=O)Nc3cc(Cl)ccc31)N(c1cccc(Cl)c1)C2=O [Example S-122, (S)-6-chloro-5′-(3-chlorophenyl)-2′-(2-cyclopropyl-4-methoxypyrimidin-5-yl)-3′-isopropyl-3′H-spiro[dihydroindole-3,4′-pyrrolo[3,4-d]imidazole]-2,6′(5′H)-dione]
IC50 [1]: 117 nM
IC50 (MDM2): 2.76 nM

CCOc1ncc(-c2nc3c(n2C(C)C)[C@@]2(C(=O)Nc4cc(Cl)ccc42)N(c2cccc(Cl)c2)C3=O)c(OC)n1 [Example S-123, (S)-6-chloro-5′-(3-chlorophenyl)-2′-(2-ethoxy-4-methoxypyrimidin-5-yl)-3′-isopropyl-3′H-spiro[dihydroindole-3,4′-pyrrolo[3,4-d]imidazole]-2,6′(5′H)-dione]
IC50 [1]: 321 nM
IC50 (MDM2): 2.11 nM

COc1nc(OC(C)C)ncc1-c1nc2c(n1C(C)C)[C@@]1(C(=O)Nc3cc(Cl)ccc31)N(c1cccc(Cl)c1)C2=O [Example S-124, (S)-6-chloro-5′-(3-chlorophenyl)-2′-(2-isopropoxy-4-methoxypyrimidin-5-yl)-3′-isopropyl-3′H-spiro[dihydroindole-3,4′-pyrrolo[3,4-d]imidazole]-2,6′(5′H)-dione]
IC50 [1]: 129 nM
IC50 (MDM2): 2.91 nM

COc1nc(OC(C)C)ncc1-c1nc2c(n1C(C)C)[C@@]1(C(=O)Nc3cc(Cl)ccc31)N(c1cc(Cl)ccc1C)C2=O [Example S-126, (S)-6-chloro-5′-(5-chloro-2-methylphenyl)-2′-(2-isopropoxy-4-methoxypyrimidin-5-yl)-3′-isopropyl-3′H-spiro[dihydroindole-3,4′-pyrrolo[3,4-d]imidazole]-2,6′(5′H)-dione]
IC50 [1]: 79.6 nM
IC50 (MDM2): 1.52 nM

CCOc1ncc(-c2nc3c(n2C(C)C)[C@@]2(C(=O)Nc4cc(Cl)ccc42)N(c2cc(Cl)ccc2C)C3=O)c(OC)n1 [Example S-127, (S)-6-chloro-5′-(5-chloro-2-methylphenyl)-2′-(2-ethoxy-4-methoxypyrimidin-5-yl)-3′-isopropyl-3′H-spiro[dihydroindole-3,4′-pyrrolo[3,4-d]imidazole]-2,6′(5′H)-dione]
IC50 [1]: 83.2 nM
IC50 (MDM2): 2.76 nM
